Results reported in patent publication US20050019315A1, “Odor control compositions and methods” (Novozymes North America, Inc., priority 2003, published 2005).

Assay: Odor panel rating of glucose/gluconic acid solutions inoculated with odorous filtrate
Conditions: capped beakers, 40° C., 7 days
Description: Another 250 mL of (4) 10 mM glucose was put it in beaker 4. 20 mg protein/L of carbohydrate oxidase (Microdochium nivale carbohydrate oxidase, Novozymes A/S) was added to beaker 4 and it was kept at a 40° C. for 1 hr. 0.5 mL of odorous 3-day filtrate from the aerobic control in Example 2 was added to all of the beakers. The beaker were capped and placed in a 40° C. water bath for 7 days. At the end of the incubation, a panel smelled the samples as described in Example 1.

What does the source list for `O=C(O)[C@H](O)[C@@H](O)[C@H](O)[C@H](O)CO` [Gluconic Acid, gluconic acid]?
formation of odor (in words): will not lead to odorous smell; Odor Level (0.5 mL odorous filtrate added, rating 1 to 5, 5 worst): 1
